According to patent EP4786487A1, “PEPTIDE” (Peptidream Inc, priority 2023, dated 2025):
Starred links: 1 amine or outer side, 2 acyl side, 3 side chain; linkers in the order of their positions; H or OH if unused. Positions of bridges follow the written chain, without caps; N, C: chain ends. Non-standard residues stand in square brackets, D forms with d. Residues, ends and D or L forms follow the SMILES beside them. Groups on a side chain read outwards from the residue. *: point of attachment. Phe(3-OCH2COOH) = N[C@@H](Cc1cccc(OCC(=O)O)c1)C(=O)O; Phe(4-COOH) = N[C@@H](Cc1ccc(C(=O)O)cc1)C(=O)O; Piperazinyl(4-CH2COOH) = O=C(O)CN1CCN(*)CC1; X1 = CCCCCCC[C@H](N[*:1])C(=O)[*:2]; NMeCha = CN[C@@H](CC1CCCCC1)C(=O)O; NMeF = CN[C@@H](Cc1ccccc1)C(=O)O; Cha = N[C@@H](CC1CCCCC1)C(=O)O; NMeA = CN[C@@H](C)C(=O)O; CO = O=C([*:1])[*:2]; Sar = CNCC(=O)O

Tests used:
Type in all cases: cell-based
Myostatin [1] = target: T1, Myostatin (Homo sapiens, UniProt O14793); assay: Reporter gene assay for myostatin signaling in HepG2 cell line, Evaluation Procedure (1), myostatin inhibition; conditions: Method A: Myostatin 10 ng/mL; read-out: IC50 (Luciferase) Myostatin HepG2
T1 construct: active myostatin (also called mature myostatin) is a homodimer consisting of two C-terminal growth factor domains; purchased R&D systems 788-G8/CF
T1 sequence (O14793 267-375): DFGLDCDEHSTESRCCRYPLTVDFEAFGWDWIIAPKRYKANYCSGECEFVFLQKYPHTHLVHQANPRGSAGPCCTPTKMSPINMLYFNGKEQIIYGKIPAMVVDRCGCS
Summary of the method: (§1)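 IC50 derived from One-Glo luciferase luminescence after 20–24 h at 37 °C. Peptides titrated 4-fold at 0.006–100 nmol/L against myostatin or 0.12–2000 nmol/L against GDF-11 in HepG2 cells carrying a transfected CAGA12-luciferase reporter, kept in 0.1% BSA EMEM.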

Myostatin [2] = assay: as above; conditions: Method A; GDF-11 IC50 versus Myostatin IC50
Summary of the method: as §1

GDF-11 = target: T2, GDF-11 (Homo sapiens, UniProt O95390); assay: Reporter gene assay for myostatin signaling in HepG2 cell line, Evaluation Procedure (1), GDF-11 inhibition; conditions: Method A: GDF-11 10 ng/mL; read-out: IC50 (Luciferase) GDF-11 HepG2
T2 construct: purchased R&D systems 1958-GD-G8/CF
T2 sequence (O95390 299-407): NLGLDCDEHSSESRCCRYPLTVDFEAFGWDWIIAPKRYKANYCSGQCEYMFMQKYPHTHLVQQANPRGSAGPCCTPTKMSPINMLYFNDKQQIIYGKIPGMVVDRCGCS
Summary of the method: as §1

IC50 (Myostatin [1])	IC50 (GDF-11)	SMILES	Selectivity (Myostatin [2])
17.7 nM	13600 nM	CCCCCCC[C@@H]1NC(=O)[C@H](CC2CCCCC2)NC(=O)[C@H](CCCNC(=N)N)NC(=O)[C@H](Cc2ccc(C(=O)O)cc2)NC(=O)[C@H](CCCCNC(=O)N2CCN(CC(=O)O)CC2)NC(=O)[C@H]2CCCN2C(=O)[C@H]([C@@H](C)CC)NC(=O)[C@H](CC2CCCCC2)N(C)C(=O)[C@H](Cc2ccc(O)cc2)NC(=O)[C@H](Cc2c[nH]c3ccccc23)NC(=O)[C@@H](CCC(=O)O)NC(=O)[C@H](C)NC(=O)CSC[C@H](C(=O)N2CCN(CC(=O)O)CC2)NC(=O)[C@H](Cc2ccccc2)N(C)C(=O)[C@H](C)N(C)C1=O [Myostatin_99_v244] ({CH2CO}-A[dE]WY[NMeCha]I[dP]K([CO-Piperazinyl(4-CH2COOH)])[Phe(4-COOH)]R[Cha][X1][NMeA][NMeF][dC]-{Piperazinyl(4-CH2COOH)}; thioether N-15)	771
21.5 nM	3530 nM	CCCCCCC[C@@H]1NC(=O)[C@H](CC2CCCCC2)N(C)C(=O)[C@H](CCCNC(=N)N)NC(=O)[C@H](Cc2ccc(C(=O)O)cc2)NC(=O)[C@H](CCCCNC(=O)N2CCN(CC(=O)O)CC2)NC(=O)[C@H]2CCCN2C(=O)[C@H]([C@@H](C)CC)NC(=O)[C@H](CC2CCCCC2)N(C)C(=O)[C@H](Cc2ccc(O)cc2)NC(=O)[C@H](Cc2c[nH]c3ccccc23)NC(=O)[C@@H](CCC(=O)O)NC(=O)[C@H](C)NC(=O)CSC[C@H](C(=O)N2CCN(CC(=O)O)CC2)NC(=O)[C@H](Cc2ccccc2)N(C)C(=O)[C@H](C)N(C)C1=O [Myostatin_99_v248] ({CH2CO}-A[dE]WY[NMeCha]I[dP]K([CO-Piperazinyl(4-CH2COOH)])[Phe(4-COOH)]R[NMeCha][X1][NMeA][NMeF][dC]-{Piperazinyl(4-CH2COOH)}; thioether N-15)	164
0.5 nM	119 nM	CCCCCCC[C@@H]1NC(=O)[C@H](CC2CCCCC2)NC(=O)[C@H](CCCNC(=N)N)NC(=O)[C@H](Cc2ccc(C(=O)O)cc2)NC(=O)[C@H](CCCCNC(=O)N2CCN(CC(=O)O)CC2)NC(=O)CN(C)C(=O)[C@H]([C@@H](C)CC)NC(=O)[C@H](CC2CCCCC2)N(C)C(=O)[C@H](Cc2ccc(O)cc2)NC(=O)[C@H](Cc2c[nH]c3ccccc23)NC(=O)[C@@H](CCC(=O)O)NC(=O)[C@H](C)NC(=O)CSC[C@H](C(=O)N2CCN(CC(=O)O)CC2)NC(=O)[C@H](Cc2ccccc2)N(C)C(=O)[C@H](C)N(C)C1=O [Myostatin_99_v249] ({CH2CO}-A[dE]WY[NMeCha]I[Sar]K([CO-Piperazinyl(4-CH2COOH)])[Phe(4-COOH)]R[Cha][X1][NMeA][NMeF][dC]-{Piperazinyl(4-CH2COOH)}; thioether N-15)	237
5.7 nM	2440 nM	CCCCCCC[C@@H]1NC(=O)[C@H](Cc2ccccc2)N(C)C(=O)[C@H](CCCNC(=N)N)NC(=O)[C@H](Cc2ccc(C(=O)O)cc2)NC(=O)[C@H](Cc2cccc(OCC(=O)O)c2)NC(=O)[C@H]2CCCN2C(=O)[C@H]([C@@H](C)CC)NC(=O)[C@H](CC2CCCCC2)N(C)C(=O)[C@H](Cc2ccc(O)cc2)NC(=O)[C@H](Cc2c[nH]c3ccccc23)NC(=O)[C@@H](CCC(=O)O)NC(=O)[C@H](C)NC(=O)CSC[C@H](C(=O)N2CCN(CC(=O)O)CC2)NC(=O)[C@H](Cc2ccccc2)N(C)C(=O)[C@H](C)N(C)C1=O [Myostatin_99_v253] ({CH2CO}-A[dE]WY[NMeCha]I[dP][Phe(3-OCH2COOH)][Phe(4-COOH)]R[NMeF][X1][NMeA][NMeF][dC]-{Piperazinyl(4-CH2COOH)}; thioether N-15)	428
